Active and inactive are the calls of the source. The calls are words filed in the database; no cut-off is given here.

Series [1] addresses T1, CYP1A2 (Homo sapiens, UniProt P05177).
T1 sequence (P05177 whole entry): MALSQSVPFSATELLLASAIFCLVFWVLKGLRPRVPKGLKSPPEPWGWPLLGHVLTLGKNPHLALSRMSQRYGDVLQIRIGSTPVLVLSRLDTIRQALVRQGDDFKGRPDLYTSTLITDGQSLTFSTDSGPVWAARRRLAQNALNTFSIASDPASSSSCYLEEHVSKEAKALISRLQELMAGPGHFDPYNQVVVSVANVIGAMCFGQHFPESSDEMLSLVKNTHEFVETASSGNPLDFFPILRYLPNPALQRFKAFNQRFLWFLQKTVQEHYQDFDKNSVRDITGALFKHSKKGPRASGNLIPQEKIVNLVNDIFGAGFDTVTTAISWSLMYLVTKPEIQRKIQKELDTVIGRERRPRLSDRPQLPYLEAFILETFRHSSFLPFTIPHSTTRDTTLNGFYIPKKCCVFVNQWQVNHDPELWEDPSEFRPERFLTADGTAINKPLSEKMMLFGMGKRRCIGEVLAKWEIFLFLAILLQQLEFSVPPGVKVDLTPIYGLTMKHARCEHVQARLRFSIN
Briefly: Inhibition of recombinant human CYP1A2 assessed as remaining enzyme activity at 10 uM preincubated for 5 mins followed by NADPH addition measured after 20 mins by fluorescence assay relative to control. The format is ADME. The note with it: read-out: Activity.

The target in series [2] is CYP2C19 (Homo sapiens, UniProt P33261). Briefly: Inhibition of recombinant human CYP2C19 assessed as remaining enzyme activity at 10 uM preincubated for 5 mins followed by NADPH addition measured after 20 mins by fluorescence assay relative to control. The format is ADME. To be noted: read-out: Activity.
Series [3] addresses CYP3A4 (Homo sapiens, UniProt P08684). Briefly: Inhibition of recombinant human CYP3A4 assessed as remaining enzyme activity at 10 uM preincubated for 5 mins followed by NADPH addition measured after 20 mins by fluorescence assay relative to control. The format is ADME. The note with it: read-out: Activity.
Series [4] in a line: Metabolic stability in human liver microsomes assessed as parent compound remaining at 1 uM preincubated for 5 mins followed by NADPH addition measured after 30 mins by LC-MS/MS analysis. The format is ADME, microsome. The note with it: read-out: Stability. (In general: Liver microsomes are vesicles of endoplasmic reticulum, rich in cytochrome P450 enzymes.)
Series [5] is described as follows: Metabolic stability in mouse liver microsomes assessed as parent compound remaining at 1 uM preincubated for 5 mins followed by NADPH addition measured after 30 mins by LC-MS/MS analysis. The format is ADME, microsome. The note with it: read-out: Stability.
Series [6] concerns the target Glycogen synthase kinase-3 beta (Mus musculus) (UniProt Q9WV60). The series is described as follows: Inhibition of amyloid beta (1 to 42)-induced GSK3beta activation in mouse HT22 cells assessed as increase in GSK3beta phosphorylation at Ser9 residues at 10 uM after 24 hrs by ELISA. The format is cell-based. In general terms: An ELISA detects its analyte on a solid surface through an enzyme-linked reagent.

Series [7] deals with T2, Phosphatidylinositol 3,4,5-trisphosphate 5-phosphatase 2 (Mus musculus) (UniProt Q6P549).
T2 sequence (whole entry): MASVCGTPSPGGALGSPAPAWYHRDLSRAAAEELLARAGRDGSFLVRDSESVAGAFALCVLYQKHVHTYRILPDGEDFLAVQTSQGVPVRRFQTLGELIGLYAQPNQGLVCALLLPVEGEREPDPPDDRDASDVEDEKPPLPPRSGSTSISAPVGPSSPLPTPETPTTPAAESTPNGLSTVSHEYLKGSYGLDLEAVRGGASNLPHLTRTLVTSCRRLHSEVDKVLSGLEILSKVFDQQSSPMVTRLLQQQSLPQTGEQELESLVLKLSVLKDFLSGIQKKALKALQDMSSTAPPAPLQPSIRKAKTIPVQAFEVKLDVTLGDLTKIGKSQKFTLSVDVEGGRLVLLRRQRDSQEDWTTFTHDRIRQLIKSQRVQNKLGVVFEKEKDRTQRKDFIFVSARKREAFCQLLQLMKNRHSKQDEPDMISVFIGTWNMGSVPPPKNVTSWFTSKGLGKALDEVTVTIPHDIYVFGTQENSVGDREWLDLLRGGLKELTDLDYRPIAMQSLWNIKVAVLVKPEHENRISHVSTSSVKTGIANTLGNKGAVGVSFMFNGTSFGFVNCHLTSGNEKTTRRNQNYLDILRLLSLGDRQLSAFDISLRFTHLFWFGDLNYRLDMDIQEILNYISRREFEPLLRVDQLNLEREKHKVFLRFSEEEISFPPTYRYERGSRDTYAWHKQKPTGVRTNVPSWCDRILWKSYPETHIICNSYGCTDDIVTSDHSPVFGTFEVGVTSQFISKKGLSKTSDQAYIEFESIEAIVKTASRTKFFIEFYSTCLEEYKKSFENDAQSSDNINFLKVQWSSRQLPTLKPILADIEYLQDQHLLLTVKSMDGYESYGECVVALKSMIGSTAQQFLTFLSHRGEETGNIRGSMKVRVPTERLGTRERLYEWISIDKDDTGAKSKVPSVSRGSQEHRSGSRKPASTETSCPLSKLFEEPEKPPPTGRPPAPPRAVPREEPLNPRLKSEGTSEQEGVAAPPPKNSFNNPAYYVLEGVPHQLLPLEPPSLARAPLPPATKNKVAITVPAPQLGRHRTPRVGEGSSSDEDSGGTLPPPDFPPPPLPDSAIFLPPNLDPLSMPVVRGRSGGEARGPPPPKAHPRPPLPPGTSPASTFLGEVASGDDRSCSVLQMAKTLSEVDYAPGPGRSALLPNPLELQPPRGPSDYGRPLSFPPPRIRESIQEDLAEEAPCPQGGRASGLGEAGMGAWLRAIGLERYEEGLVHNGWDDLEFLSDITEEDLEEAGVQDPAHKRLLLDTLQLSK
Briefly: Inhibition of SHIP2 in H2O2-stimulated mouse HT22 cells assessed as decrease in PI(3,4)P2 production at 10 uM incubated for 30 mins followed by H2O2 stimulation for 5 mins in presence of PTEN inhibitor VO-Ohpic trihydrate by ELISA.

Series [8] is described as follows: Half life in Sprague-Dawley rat at 2 mg/kg, iv administered as single dose by LC-MS/MS analysis. The format is ADME, organism-based. To be noted: in vivo.
A short description of series [9]: Cmax in Sprague-Dawley rat at 2 mg/kg, iv administered as single dose by LC-MS/MS analysis. Further details: dose 2 mg/kg, route intravenous. The format is ADME, organism-based. To be noted: in vivo.
A short description of series [10]: MRT (0 to t) in Sprague-Dawley rat at 2 mg/kg, iv administered as single dose by LC-MS/MS analysis. The format is ADME, organism-based. To be noted: in vivo.
The nature of series [11]: MRT (0 to infinity) in Sprague-Dawley rat at 2 mg/kg, iv administered as single dose by LC-MS/MS analysis. The format is ADME, organism-based. To be noted: in vivo.
Series [12] is described as follows: Clearance in Sprague-Dawley rat at 2 mg/kg, iv administered as single dose by LC-MS/MS analysis. The format is ADME, organism-based. The note with it: in vivo.
Series [13] in a line: AUC (0 to t) in Sprague-Dawley rat at 10 mg/kg, po administered as single dose by LC-MS/MS analysis. The format is ADME, organism-based. The note with it: in vivo.
Series [14] is described as follows: Drug uptake in brain of Sprague-Dawley rat at 5 mg/kg, iv measured at 0.5 hrs by LC-MS/MS analysis. The format is ADME, organism-based. To be noted: read-out: Drug uptake.
The nature of series [15]: Drug uptake in blood of Sprague-Dawley rat at 5 mg/kg, iv measured at 2 hrs by LC-MS/MS analysis. The note with it: read-out: Drug uptake. The format is ADME, organism-based.
The nature of series [16]: Drug uptake in blood of Sprague-Dawley rat at 5 mg/kg, iv measured at 5 hrs by LC-MS/MS analysis. The format is ADME, organism-based. To be noted: read-out: Drug uptake.

Sequence of CYP2C19 (P33261 whole entry): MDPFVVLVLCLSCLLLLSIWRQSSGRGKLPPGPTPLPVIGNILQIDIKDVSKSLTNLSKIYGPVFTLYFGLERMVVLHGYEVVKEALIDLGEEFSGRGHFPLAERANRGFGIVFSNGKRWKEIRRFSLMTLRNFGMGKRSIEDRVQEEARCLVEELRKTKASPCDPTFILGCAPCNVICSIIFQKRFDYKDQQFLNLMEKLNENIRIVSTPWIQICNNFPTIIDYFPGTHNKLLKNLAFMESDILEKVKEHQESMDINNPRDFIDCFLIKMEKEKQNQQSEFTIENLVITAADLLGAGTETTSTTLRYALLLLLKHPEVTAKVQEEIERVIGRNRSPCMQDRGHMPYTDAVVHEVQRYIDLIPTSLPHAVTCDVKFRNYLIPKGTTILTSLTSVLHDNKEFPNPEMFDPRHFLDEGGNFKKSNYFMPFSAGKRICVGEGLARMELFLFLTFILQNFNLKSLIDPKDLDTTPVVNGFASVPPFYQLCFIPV
Sequence of CYP3A4 (P08684 whole entry): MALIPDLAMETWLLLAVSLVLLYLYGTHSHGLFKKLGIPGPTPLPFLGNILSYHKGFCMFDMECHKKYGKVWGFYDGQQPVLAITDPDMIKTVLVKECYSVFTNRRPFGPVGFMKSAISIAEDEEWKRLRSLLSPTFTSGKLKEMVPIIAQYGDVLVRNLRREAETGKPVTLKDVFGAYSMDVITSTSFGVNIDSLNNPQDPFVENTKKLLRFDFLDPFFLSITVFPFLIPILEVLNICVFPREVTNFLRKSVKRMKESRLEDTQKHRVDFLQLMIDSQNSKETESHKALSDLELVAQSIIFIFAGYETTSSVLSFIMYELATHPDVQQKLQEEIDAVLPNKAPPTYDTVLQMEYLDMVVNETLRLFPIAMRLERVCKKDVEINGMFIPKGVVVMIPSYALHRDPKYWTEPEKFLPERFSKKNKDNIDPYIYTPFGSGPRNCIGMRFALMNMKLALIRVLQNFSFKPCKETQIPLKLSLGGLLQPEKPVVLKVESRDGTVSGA
Sequence of Glycogen synthase kinase-3 beta (Mus musculus) (Q9WV60 whole entry, looked up): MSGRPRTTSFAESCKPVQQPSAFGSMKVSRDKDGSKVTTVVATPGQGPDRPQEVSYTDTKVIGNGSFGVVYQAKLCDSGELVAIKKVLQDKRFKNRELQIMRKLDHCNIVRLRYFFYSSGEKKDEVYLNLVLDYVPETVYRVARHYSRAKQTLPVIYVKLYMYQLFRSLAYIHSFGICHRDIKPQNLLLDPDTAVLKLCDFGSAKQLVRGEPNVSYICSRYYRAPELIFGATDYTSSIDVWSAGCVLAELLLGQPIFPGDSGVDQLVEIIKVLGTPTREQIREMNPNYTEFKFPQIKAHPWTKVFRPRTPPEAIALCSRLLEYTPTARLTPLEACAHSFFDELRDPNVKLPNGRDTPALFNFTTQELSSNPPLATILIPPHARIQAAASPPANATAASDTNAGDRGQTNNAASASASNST

In the case of `N#Cc1ccc(-c2cncc(OCc3ccc(Cl)cc3Cl)c2)s1`, the activity at 20 min, 10 µM in [1] was 77.6%; in [2], 89.9%; in series [3], 96.7%. Also, the remaining at 0.5 h, 1 µM came to 74.5% in series [4] and 38.8% in series [5].

For `O=C(NCc1c(F)cccc1F)c1sccc1OCc1ccc(Cl)cc1Cl`, the activity at 20 min, 10 µM in series [1] worked out at 74.3%; in series [2], 16.4%; in [3] it was 20.2%. For the same compound, the figures for the remaining at 0.5 h, 1 µM in series [4] and in [5] were 44.1% and 6.4%, respectively. For the same compound, the inhibition entry in series [6] is “Active”.

As a reminder, the half-life is the time in which the quantity being followed falls by half. A low value points to rapid decline. In general, Cmax refers to the maximum level reached in the sampled fluid or tissue. The term MRT last denotes the average time that molecules of a dose stay in the body. One may read the MRT inf as a mean duration of stay, worked out from the concentration-time curve. A word on the clearance: it is the rate of elimination divided by the concentration. As usually defined, the AUC(0-t) is the area under the concentration-time curve up to a stated or last time point. Lower therefore signals low exposure. Turning to `C[C@@H](Oc1cncc(-c2cnc(N)nc2)c1)c1c(Cl)ccc(F)c1Cl`, the activity at 20 min, 10 µM in series [1] worked out at 59%; in series [2], 36.4%; in series [3] it was 80.2%. In addition, the remaining at 0.5 h, 1 µM in [4] was found to be 77%; in [5], 46.5%. The inhibition result in series [7] and in [6] was “Active” throughout. In addition, the half-life in [8] is 1.36 h. This compound also came in with a maximum concentration (Cmax) in [9] of 1480 ng/mL. In [10], this compound registered an MRT last of 1.28 h. The compound also had a mean residence time (MRT inf) in series [11] of 1.37 h. Also, the clearance in series [12] was 19.5 mL/min/kg. Also, the AUC(0-t) in series [13] is 2830 ng·h/mL. The concentration at 0.5 h in [14] was found to be 4510 ng/mL. In addition, the concentration at 2 h in series [15] amounted to 559 ng/mL. For the same compound, the concentration at 5 h in series [16] amounted to 89.4 ng/mL.

The values above are taken from ChEMBL document CHEMBL4270607, “Identification of crizotinib derivatives as potent SHIP2 inhibitors for the treatment of Alzheimer's disease” (Eur J Med Chem, 2018).
